We go through 3 compounds from patent US4975370A, “Process for preparing 14-hydroxy-6-O-methyl-erythromycin A” (Taisho Pharmaceutical Co., Ltd., priority 1986, dated 1990).

The test system of data set [1] is Streptococcus pneumoniae IID 553. Description: In vivo antibacterial test, experimental infection in mouse. The note with it: Streptococcus pneumoniae IID 553 infection (intraperitoneal), male ICR mice 26±1 g, drug orally, 7 days observation, probit analysis. As for the experimental part: (§1) The in vivo antibacterial activity of 14-hydroxy-6-O-methylerythromycin A was measured by effect of treatment on experimental infectious diseases in mouse. 6-O-methylerythromycin A and erythromycin A were used as comparative drugs. Staphylococcus aureus BB and Streptococcus pneumoniae IID 553 were used as experimental infectious diseases of mouse. Ten male ICR mice, weighing 26±1 g, were used for each group to a different concentration of one drug. The bacteria were administered intraperitoneally to each groups of […] for infection. 14-hydroxy-6-O-methylerythromycin A, 6-O-methylerythromycin A and erythromycin A were administered orally to different groups of mice. After observing for 7 days, ED50 value was calculated from the number of mice serviving.
(§2) The ED50 values having 95% confidence limits were estimated by probit analysis.

Data set [2] deals with Staphylococcus aureus BB. The description is as above. The note with it: Staphylococcus aureus BB infection (intraperitoneal), male ICR mice 26±1 g, drug orally, 7 days observation, probit analysis. The protocol:
as §1, §2

In data set [3] the test system is Bacillus subtilis ATCC 6633. The experiment in a line: In vitro antibacterial activity (MIC method of the Japan Chemotherapeutic Society). Format: cell-based. Conditions: ATCC6633, read-out: MIC (minimum inhibitory concentration). As for the experimental part: (§3) The antibacterial activity (MIC: minimum inhibitory concentration) of 14-hydroxy-6-O-methylerythromycin A was measured according to the MIC method specified by the Japan Chemotherapeutic Society.

The subject of data set [4] is Micrococcus luteus ATCC 9341. The description is as above. Conditions: ATCC9341, read-out: MIC (minimum inhibitory concentration). Format: cell-based. As for the experimental part:
as §3

Another data set has as its system Salmonella enteritidis. Described as above. Type of data set: cell-based. Conditions: Salmonella enterica, read-out: MIC (minimum inhibitory concentration). As for the experimental part: as §3
Data set [5] concerns Staphylococcus aureus BB. The description is as above. Type of data set: cell-based. The note with it: read-out: MIC (minimum inhibitory concentration). As for the experimental part: as §3
In another data set the test system is Branhamella catarrhalis. The description is as above. Type of data set: cell-based. The note with it: Moraxella catarrhalis, read-out: MIC (minimum inhibitory concentration). As for the experimental part: as §3
The test system of data set [6] is Escherichia coli NIHJ JC-2. Described as above. Format: cell-based. Conditions: NIHJJC2, read-out: MIC (minimum inhibitory concentration). The protocol: as §3
Data set [7] relates to Staphylococcus epidermidis IID 866. The data set is described as above. Type of data set: cell-based. The note with it: IID866, read-out: MIC (minimum inhibitory concentration). The protocol:
as §3

The next data set concerns Micrococcus luteus NIHJ. Described as above. Format: cell-based. The note with it: read-out: MIC (minimum inhibitory concentration). The protocol:
as §3

In data set [8] the test system is Neisseria gonorrhoeae TCC-4. The data set is described as above. Format: cell-based. Conditions: TCC4, read-out: MIC (minimum inhibitory concentration). As for the experimental part: as §3
Data set [9] has as its system Staphylococcus pyogenes IID 689. The data set is described as above. The note with it: Streptococcus pyogenes, IID689, read-out: MIC (minimum inhibitory concentration). Format: cell-based. As for the experimental part: as §3
For data set [10], the system named is Staphylococcus aureus Smith 4. The description is as above. The note with it: SMITH4, read-out: MIC (minimum inhibitory concentration). Type of data set: cell-based. The protocol:
as §3

Data set [11] concerns Staphylococcus pneumoniae IDD 553. Described as above. Type of data set: cell-based. Conditions: IDD553, read-out: MIC (minimum inhibitory concentration). As for the experimental part: as §3
Data set [12] concerns Staphylococcus pneumoniae IDD 552. The description is as above. Format: cell-based. The note with it: IDD552, read-out: MIC (minimum inhibitory concentration). The protocol: as §3
For data set [13], the system named is Enterococcus faecalis ATCC 8043. The data set is described as above. Format: cell-based. The note with it: ATCC8043, read-out: MIC (minimum inhibitory concentration). As for the experimental part:
as §3

Data set [14] has as its system Klebsiella pneumoniae IFO 3317. Described as above. Type of data set: cell-based. Conditions: IFO3317, read-out: MIC (minimum inhibitory concentration). As for the experimental part:
as §3

In data set [15] the test system is Haemophilus influenzae J-48. The data set is described as above. Type of data set: cell-based. The note with it: J48, read-out: MIC (minimum inhibitory concentration). As for the experimental part: as §3
The test system of data set [16] is Staphylococcus aureus 209P-JC. Described as above. Conditions: read-out: MIC (minimum inhibitory concentration). Format: cell-based. As for the experimental part: as §3
Data set [17] relates to Gram-positive bacteria. The experiment in a line: In vivo antibacterial activity (general statement, effective amount).
Data set [18] has as its system Gram-positive bacteria. Description: In vitro antibacterial activity (general statement). Format: cell-based.
For data set [19], the system named is Gram-negative bacteria, especially Neisseria gonorroeae and Haemophilus influenzae. The description is as above. Format: cell-based. Conditions: some Gram-negative bacteria.
A short description of data set [20]: Acute toxicity (LD50) in ICR mice. The note with it: mouse, in vivo, intravenous administration.
The next data set can be described thus: Solubility. Type of data set: physicochemical.

Molecules are shown by their SMILES. In brackets after ≈: the same amount, converted by molar mass.

Regarding `CO[C@]1(C)C[C@@H](C)C(=O)[C@H](C)[C@@H](O)[C@](C)(O)[C@@H](C(C)O)OC(=O)[C@H](C)[C@@H](O[C@H]2C[C@@](C)(OC)[C@@H](O)[C@H](C)O2)[C@H](C)[C@H]1O[C@@H]1O[C@H](C)C[C@H](N(C)C)[C@H]1O` (stereo partly drawn) [14-hydroxy-6-O-methylerythromycin A], the ED50 in [1] is 0.069 mg/mouse; in the data set on Staphylococcus aureus BB [2] it was 0.234 mg/mouse; in the data set on Gram-positive bacteria [17] (general statement), 3 to 10 mg/kg. For the same compound, the MIC in data set [3] was determined as 0.1 µg/mL (≈ 0.131 µM); in [4], 0.025 µg/mL (≈ 0.0327 µM); in the data set on Salmonella enteritidis, 25 µg/mL (≈ 32.7 µM); in the data set on Staphylococcus aureus BB [5] it was 0.2 µg/mL (≈ 0.262 µM); in the data set on Branhamella catarrhalis it was 0.05 µg/mL (≈ 0.0654 µM); in data set [6] it was 50 µg/mL (≈ 65.4 µM). The MIC in [7] came out at 0.2 µg/mL (≈ 0.262 µM); in the data set with Micrococcus luteus NIHJ, 0.05 µg/mL (≈ 0.0654 µM); in [8], 0.39 µg/mL (≈ 0.51 µM); in data set [9] it was 0.025 µg/mL (≈ 0.0327 µM); in [10], 0.2 µg/mL (≈ 0.262 µM); in data set [11] it was 0.025 µg/mL (≈ 0.0327 µM). Also, the MIC in data set [12] was determined as 0.025 µg/mL (≈ 0.0327 µM); in data set [13], 0.05 µg/mL (≈ 0.0654 µM); in [14], 25 µg/mL (≈ 32.7 µM); in data set [15] it was 3.13 µg/mL (≈ 4.1 µM); in data set [16], 0.1 µg/mL (≈ 0.131 µM). Also, the “in vivo antibacterial activity against some Gram-positive bacteria” value with Gram-positive bacteria [17] (compared with 6-O-methylerythromycin A) is given as “stronger”. The “in vitro antibacterial activity” value (in the data set with Gram-positive bacteria [18]; in data set [19]) was “strong” each time. Also, in data set [20], the LD50 came to 560 mg/kg. Moreover, the Solubility result is “Soluble” in the data set “Solubility” (in chloroform, methanol, ethanol, acetone, ethyl acetate and pyridine); “Poorly soluble” in the data set “Solubility” (in ethyl ether, n-hexane, petroleum ether, benzene and water).
`CC[C@H]1OC(=O)[C@H](C)[C@@H](O[C@H]2C[C@@](C)(OC)[C@@H](O)[C@H](C)O2)[C@H](C)[C@@H](O[C@@H]2O[C@H](C)C[C@H](N(C)C)[C@H]2O)[C@](C)(OC)C[C@@H](C)C(=O)[C@H](C)[C@@H](O)[C@]1(C)O` [6-O-Methyl-erythromycin A, 6-O-methylerythromycin A]: the ED50 in data set [1] was determined as 0.222 mg/mouse; with Staphylococcus aureus BB [2], 0.394 mg/mouse.
The matching figures for `CC[C@H]1OC(=O)[C@H](C)[C@@H](O[C@H]2C[C@@](C)(OC)[C@@H](O)[C@H](C)O2)[C@H](C)[C@@H](O[C@@H]2O[C@H](C)C[C@H](N(C)C)[C@H]2O)[C@](C)(O)C[C@@H](C)C(=O)[C@H](C)[C@@H](O)[C@]1(C)O` [Erythromycin A, erythromycin A]: 1.43 mg/mouse and 2.20 mg/mouse.

In general, LD50 refers to the dose at which mortality reaches 50%.
